According to doi:10.1101/2023.03.24.534094v2 (biorxiv, 2023):

What was measured:
Assay in all cases: biochemical
[1] = target: T1, MST2 (Homo sapiens, UniProt Q13188); conditions: 10 µM; binder
T1 sequence (Q13188 1-491): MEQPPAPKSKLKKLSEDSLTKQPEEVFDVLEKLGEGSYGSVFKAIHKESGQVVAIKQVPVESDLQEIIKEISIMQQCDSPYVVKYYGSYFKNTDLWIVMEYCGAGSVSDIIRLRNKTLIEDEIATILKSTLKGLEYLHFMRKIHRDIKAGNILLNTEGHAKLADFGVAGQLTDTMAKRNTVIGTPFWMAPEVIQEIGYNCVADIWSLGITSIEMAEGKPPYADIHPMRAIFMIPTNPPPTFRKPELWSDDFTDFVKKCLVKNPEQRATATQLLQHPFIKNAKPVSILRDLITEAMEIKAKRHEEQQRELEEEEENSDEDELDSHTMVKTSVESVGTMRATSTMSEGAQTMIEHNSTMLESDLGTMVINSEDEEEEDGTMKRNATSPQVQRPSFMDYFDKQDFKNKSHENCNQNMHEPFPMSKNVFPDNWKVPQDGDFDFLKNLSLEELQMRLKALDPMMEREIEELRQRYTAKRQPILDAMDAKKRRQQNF

[2] = target: MST4 (Homo sapiens, UniProt Q9P289); conditions: 10 µM; binder
[3] = target: T2, MST1 (Homo sapiens, UniProt Q13043)
T2 sequence (Q13043 1-487): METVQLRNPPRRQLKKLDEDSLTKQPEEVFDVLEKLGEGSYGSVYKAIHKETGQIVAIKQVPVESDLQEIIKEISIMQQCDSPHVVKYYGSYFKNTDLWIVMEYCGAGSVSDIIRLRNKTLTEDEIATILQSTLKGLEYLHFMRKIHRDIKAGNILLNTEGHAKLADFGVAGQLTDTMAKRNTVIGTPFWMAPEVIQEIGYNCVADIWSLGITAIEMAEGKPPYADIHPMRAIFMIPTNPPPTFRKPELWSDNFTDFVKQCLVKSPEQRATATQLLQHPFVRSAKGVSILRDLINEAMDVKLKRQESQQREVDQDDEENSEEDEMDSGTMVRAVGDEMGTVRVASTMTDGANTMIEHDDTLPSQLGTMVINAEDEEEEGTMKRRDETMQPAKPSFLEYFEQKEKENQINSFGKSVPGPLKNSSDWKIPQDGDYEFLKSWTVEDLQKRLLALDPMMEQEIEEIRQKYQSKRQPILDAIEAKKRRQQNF

Chain of MST4 (Q9P289 whole entry): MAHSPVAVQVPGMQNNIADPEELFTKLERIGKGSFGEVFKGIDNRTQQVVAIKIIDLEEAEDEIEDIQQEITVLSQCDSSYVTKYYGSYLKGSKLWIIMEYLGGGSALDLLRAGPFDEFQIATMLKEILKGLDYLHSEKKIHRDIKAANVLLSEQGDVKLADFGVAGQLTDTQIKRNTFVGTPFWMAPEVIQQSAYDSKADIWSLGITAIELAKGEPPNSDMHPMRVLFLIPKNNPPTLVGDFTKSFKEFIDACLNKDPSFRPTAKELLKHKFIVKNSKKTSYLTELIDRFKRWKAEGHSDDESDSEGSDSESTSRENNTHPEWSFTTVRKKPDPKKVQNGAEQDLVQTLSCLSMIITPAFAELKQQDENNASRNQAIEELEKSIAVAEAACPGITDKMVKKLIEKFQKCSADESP

CNc1ncc2cc(-c3ccc(-c4ncccc4F)cc3Cl)c(=O)n(C[C@H]3OC[C@H](N)CO3)c2n1 [compound 1, MRIA9]
dTm MST2 [1]: 2.5 °C
dTm MST4 [2]: 2.7 °C
dTm MST1 ([3]; 10 µM, binder): 1.8 °C

CN[C@@H]1C[C@H]2O[C@@](C)([C@@H]1OC)n1c3ccccc3c3c4c(c5c6ccccc6n2c5c31)C(=O)NC4 [Staurosporine]
ΔTm at 10 µM ([3]; read-out: dTm MST1): 13.9 °C
